{
  "source": "patent US6124266A",
  "about": "“Sulpholipid composition and methods for treating skin disorders” (Scotia Lipid Teknik AB, priority 1996, dated 2000)",
  "key": {"PAF receptor [1]": {"biological_target": "T1, PAF receptor (Homo sapiens, UniProt P25105)", "T1 construct": "endogenous in cells; host or cells: human polymorphonuclear leukocytes (intact cells from concentrated suspensions of human leukocytes)", "T1 sequence (P25105 whole entry)": "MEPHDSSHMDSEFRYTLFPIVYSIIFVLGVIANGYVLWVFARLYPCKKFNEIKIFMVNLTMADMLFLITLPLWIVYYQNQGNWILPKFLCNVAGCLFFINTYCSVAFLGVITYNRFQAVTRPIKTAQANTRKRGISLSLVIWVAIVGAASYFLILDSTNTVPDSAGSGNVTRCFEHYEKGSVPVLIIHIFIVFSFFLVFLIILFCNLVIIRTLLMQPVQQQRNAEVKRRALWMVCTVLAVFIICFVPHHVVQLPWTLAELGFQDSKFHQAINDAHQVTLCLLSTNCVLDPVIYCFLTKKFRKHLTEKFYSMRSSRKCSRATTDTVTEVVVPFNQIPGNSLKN", "assay": "[3H]PAF receptor binding assay", "conditions": "human polymorphonuclear leukocytes, 120 min, 20° C., pH 7.0, 0.35-0.40 nM [3H]PAF; mean of 2-4 experiments in triplicate; read-out: IC50, displacement of [3H]PAF binding", "excerpt": "(§1) The PAF induced exocytosis model described above is used for screening for PAF receptor antagonists since it is a rapid, reproducable and reliable so called functional assay for PAF. However, a number of other actions, like elastase inhibition or membrane stabilisation, would also result in an inhibitory effect in the model which consequently is not exclusive for PAF receptor antagonism. To elucidate if SQDG acts through PAF receptor antagonism in the neutrophil, a receptor binding model using [3H]PAF as the radioligand was used.\nCell preparation: For the receptor binding experiments the cells were prepared in the same way as described above except that concentrated suspensions of human leukocytes in a CDP-adenine solution were used and in the final step the cells were suspended in the incubation buffer and the cell count was adjusted to 3.1×10^6 cells/ml.\n[^3 H]PAF (C18; 1-O-[^3 H]octadecyl-2-acetyl-sn-3-phosphocholine; Amersham, England) receptor binding was studied in human polymorphonuclear leukocytes (2.5×10^6 cells/ml) using a method recently reevaluated by us (Vasange et al., in press, 1996). Incubations were performed for 120 min at 20° C. in a total volume of 1.0 ml containing […] 25 mM Tris HCl, 130 mM NaCl, 5.5 mM KCl, 1.4 mM CaCl2, 0.7 mM MgCl2, 10 mM glucose, 0.5% BSA and 0.35-0.40 nM [^3 H]PAF. Final pH was 7.0 at the incubation temperature used. Non-specific binding was determined with 1 μM C16-PAF (Bachem, Switzerland). The incubation contents were rapidly filtered by vacuum over Whatman GF/C glass-fibre filters using a 12 well Skatron Cell Harverster (Skatron A/S, Norway) and washed with 3×2 ml incubation buffer containing 0.1% BSA. The filtration took less than 15 s. Filters were also pre-soaked with incubation buffer containing 0.1% BSA. Following filtration, the filters were dried in an oven at 70° C. for 30 min and equilibrated for two hours in the scintillation vials before counting in a Packard scintillator at an efficiency of 55%. […]"}, "PAF receptor [2]": {"tested_on": "PAF receptor", "conditions": "cited from earlier work"}, "[3]": {"tested_on": "oedema induced by carrageenan potentiated by PAF", "conditions": "rat, in vivo; cited from earlier work"}, "[4]": {"tested_on": "PAF induced elastase release in human neutrophils", "assay": "PAF induced exocytosis (elastase assay)", "assay_type": "cell-based", "conditions": "for IC50: human leucocytes, 37° C., 10 min, mean of 2-4 experiments in duplicate, read-out: IC50, inhibition of PAF induced elastase release; for inhibitory activity in the PAF induced exocytosis model: in concentrations around the IC50 of SQDG", "method": "In this test, which is also called the elastase assay, the effect of the extracts on inhibiting the exocytosis induced by PAF was examined. This model was used to guide the fractionation of the extracts or isolated compounds.\nCell preparation: Peripheral blood anti-coagulated with heparin was obtained from healthy volunteers at the University Hospital (in Uppsala, Sweden). After sedimentation with 10% Dextran T-500 (Pharmacia Fine Chemicals) for 30 min at 20° C. the supernatant was removed and centrifuged at 200×g for 30 min. The sediments were treated with one volume of ice-cold water for 21 s followed by the addition of 9 volumes of Mg^2+ and Ca^2+ free PBS in order to lyse the remaining erythrocytes. After centrifugation (200×g for 10 min at 4° C.) the leucocytes were suspended in PBS (containing Mg^2+ and Ca^2+ and Cytochalasin B, Serva, 5 μg/ml) at a concentration of 10-30×10^6 cells/ml.\nThe assay was performed as described by Tuominen et al., Planta Medica 58, 306-310 (1992). In short leucocytes were incubated at 37° C. in PBS containing 2.5% BSA together with SAAVNA (N-succinyl-L-alanyl-L-alanyl-L-valine-p-nitroanilide, Bachem), the inhibitor in different concentrations or the vehicle (max. 0.1% DMSO) and PAF (Bachem) for 10 min. Blank tubes without PAF were run in parallel. The reaction was stopped by the addition of 2% citric acid and after the centrifugation, the samples were measured in a UV spectrophotometer at 405 nm. The absorbance of the corresponding blank tube was subtracted from the sample and the inhibition of PAF induced elastase release was calculated as the […] in absorbance as compared to the vehicle. The samples were analyzed as 4-5 concentrations ranging from 10^-3 M to 10^-7 M. They were dissolved in 10% DMSO (the isolated compound) or cyclodextrin (BN 52021, used as a reference) and then diluted with the buffer. The final concentration of DMSO or cyclodextrin never exceeded 0.1%.\nas §1"}, "[5]": {"tested_on": "ethyl phenyl propiolate (EPP) induced rat ear oedema", "assay": "Rat ear oedema (EPP induced)", "assay_type": "in vivo", "conditions": "mepyramine 1 μg/ear (positive control), 2 hours, 6 ears, p<0.01", "method": "The rat ear oedema test is aimed to be used for detection of drugs with topical anti-inflammatory activity. It is based on the work by Tonelli et al., Endocrinology 77, 625-634, 1965, but instead of using the carcinogenic croton oil as induced, ethyl phenyl propiolate (EPP) is applied topically on the rat ears. The oedema develops rapidly (about 30 minutes) and starts to decline after two hours. Several measurements can be made by using a special measuring device and the values obtained with application of both EPP and the drug to be investigated are compared to values obtained with EPP alone.\nThe mechanism of the EPP induced oedema is not completely understood but it is known that compounds with broad anti-inflammatory action, like steroidal anti-inflammatory drugs, are active in this assay. The oedema can also be induced by other agents, such as arachidonic acid, and in that specific case the oedema is believed to develop through the action of the […], inflammatory mediators, leukotrienes. They can also contribute to the EPP oedema.\nThe Calaguala methanolic extract was tested in this model on several occasions. […]\nThe thickness of ears is measured after 2 hours. […] The significance of the values obtained was determined by using Students t-test (one tailed analysis). […]\nThe thickness of the ears was measured after 2 hours. […]"}, "[6]": {"tested_on": "carrageenan induced rat paw oedema", "assay": "Rat paw oedema induced by carrageenan", "assay_type": "in vivo, rat (Spraque Dawley)", "conditions": "Na-salicylate 200 mg/kg (positive control), p < 0.0005", "protocol": "The most commonly used inducer is carrageenan which is injected to the hind paw of male Spraque Dawley rats.\nSeveral tests were performed with the methanolic Calaguala extract which was applied orally in doses 500-2000 mg/kg. As positive control the cyclo-oxygenase inhibitor Na-salicylate (200 mg/kg) was used.\nThe significancies were calculated using Students t-test (one tailed)."}, "[7]": {"tested_on": "leukotriene B4 synthesis in human leucocytes", "conditions": "cited from earlier work"}, "tumour promotion": {"tested_on": "tumour promotion", "conditions": "Chem. Pharm. Bull. 41 (9), 1664-1666, 1993; cited from earlier work"}},
  "note": "Read-outs that look alike come from different tables or passages of the source.",
  "data": [
    {"molecule": "COc1ccc(NC(=S)N2CCc3c(sc4c3C(c3ccccc3Cl)=NCc3nnc(C)n3-4)C2)cc1", "note": "[BN 50730]", "values": [
      {"measurement": "IC50", "setting": "PAF receptor [1]", "result": 0.04, "unit": "µM"},
      {"measurement": "PAF antagonistic activity in vitro (compared with BN 52021)", "setting": "PAF receptor [2]; Guinot 1994", "result": "several ten-folds more potent"}
    ]},
    {"molecule": "CC1C(=O)OC2C(O)C34C5CC(C(C)(C)C)C36C(OC(=O)C6O)OC4(C(=O)O5)C12O", "note": "(stereo not drawn) [BN 52021]", "values": [
      {"measurement": "IC50", "setting": "PAF receptor [1]", "result": 25, "unit": "µM"},
      {"measurement": "effect on PAF enhancement of carrageenan induced oedema", "setting": "[3]", "result": "capable of abolishing this enhancement"},
      {"measurement": "IC50", "setting": "[4]", "result": 80, "unit": "µM"},
      {"measurement": "anti-inflammatory properties in several in vivo and in vitro models", "setting": "PAF receptor [2]", "result": "anti-inflammatory properties"}
    ]},
    {"molecule": "COc1ccc(CN(CCN(C)C)c2ccccn2)cc1", "note": "[Mepyramin]", "values": [
      {"measurement": "Mean decrease in oedema (ear thickness, Table 2)", "setting": "[5]", "result": 44, "unit": "%"}
    ]},
    {"molecule": "O=C(O)c1ccccc1O", "note": "[Na-salicylate]", "values": [
      {"measurement": "Mean decrease in oedema (Table 4)", "setting": "[6]", "result": 43, "unit": "%"}
    ]},
    {"molecule": "CCCCCCCCCCCCCCCC(=O)OC[C@H](CO[C@H]1O[C@H](CS(=O)(=O)O)[C@@H](O)[C@H](O)[C@H]1O)OC(=O)CCCCCCCCCCCCCCC", "note": "[SQDG of the formula III, 1,2-O,O-dipalmitoyl-[6'-sulpho-α-D-quinovopyranosyl(1'→3)]-sn-glycerol]", "values": [
      {"measurement": "IC50", "setting": "PAF receptor [1]", "result": 2, "unit": "µM"},
      {"measurement": "IC50", "setting": "[4]; Neutrophil", "result": 10, "unit": "µM"}
    ]},
    {"molecule": "CCCCC/C=C\\C/C=C\\C/C=C\\C/C=C\\CCCC(=O)O", "note": "[arachidonic acid]", "values": [
      {"measurement": "inhibition of leukotriene B4 synthesis", "setting": "[7]", "result": "inhibitory activity"}
    ]},
    {"molecule": "CCCCC/C=C\\C/C=C\\CCCCCCCC(=O)O", "note": "[linoleic acid]", "values": [
      {"measurement": "inhibition of leukotriene B4 synthesis", "setting": "[7]", "result": "inhibitory activity"}
    ]},
    {"molecule": "CC/C=C\\C/C=C\\C/C=C\\CCCCCCCC(=O)O", "note": "[linolenic acid]", "values": [
      {"measurement": "inhibition of leukotriene B4 synthesis", "setting": "[7]", "result": "inhibitory activity"}
    ]},
    {"molecule": "CCCCCCCC/C=C\\CCCCCCCC(=O)O", "note": "[oleic acid]", "values": [
      {"measurement": "inhibition of leukotriene B4 synthesis", "setting": "[7]", "result": "comparable inhibitory patterns"}
    ]},
    {"molecule": "digalactosyldiacylglycerol [DGDG]", "values": [
      {"measurement": "inhibition of tumour promotion compared with SQDG", "setting": "tumour promotion", "result": "inhibit tumour promotion more intensely than SQDG"},
      {"measurement": "inhibitory activity in the PAF induced exocytosis model", "setting": "[4]", "result": "no inhibitory activity"}
    ]},
    {"molecule": "monogalactosyldiacylglycerol [MGDG]", "values": [
      {"measurement": "inhibition of tumour promotion compared with SQDG", "setting": "tumour promotion", "result": "inhibit tumour promotion more intensely than SQDG"},
      {"measurement": "inhibitory activity in the PAF induced exocytosis model", "setting": "[4]", "result": "no inhibitory activity"}
    ]}
  ]
}
